Laboratory results from ChEMBL document CHEMBL1201862, “PubChem BioAssay data set” (2004).
Structures can show the parent of a compound that is named as a salt.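 Step 1: Grow cells in 96-well plates. Step 2: Expose to compound for 48 hours at 5 concentrations. Step 3: Interpolate endpoints linearly; if unreached, use highest concentration. At the GI50, growth is halved.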 The source made the active and inactive calls. Cut-off read from the data, not from the text of the source: active = GI50 up to about 1.1 µM and inactive = higher.

What was measured:
Assay in all cases: inhibition of tumour cell growth, NCI panel, 48 h
Malme-3M = test system: Malme-3M
A549 = test system: A549
NCI-H522 = test system: NCI-H522
MDA-MB-435 = test system: MDA-MB-435
SK-MEL-28 = test system: SK-MEL-28
SN12C = test system: SN12C
MCF7 = test system: MCF7
NCI-H460 = test system: NCI-H460
NCI/ADR-RES = test system: NCI/ADR-RES
M14 = test system: M14
COLO 205 = test system: COLO 205
HCT-15 = test system: HCT-15
DU-145 = test system: DU-145
MDA-MB-231 = test system: MDA-MB-231
OVCAR-8 = test system: OVCAR-8
HCT-116 = test system: HCT-116
UACC-257 = test system: UACC-257
DMS-114 = test system: DMS-114
SR = test system: SR
SNB-78 = test system: SNB-78

| SMILES | GI50 (Malme-3M) | GI50 (A549) | GI50 (NCI-H522) | GI50 (MDA-MB-435) | GI50 (SK-MEL-28) | GI50 (SN12C) | GI50 (MCF7) | GI50 (NCI-H460) | GI50 (NCI/ADR-RES) | GI50 (M14) | GI50 (COLO 205) | GI50 (HCT-15) | GI50 (DU-145) | GI50 (MDA-MB-231) | GI50 (OVCAR-8) | GI50 (HCT-116) | GI50 (UACC-257) | GI50 (DMS-114) | GI50 (SR) | GI50 (SNB-78) |
| --- | --- | --- | --- | --- | --- | --- | --- | --- | --- | --- | --- | --- | --- | --- | --- | --- | --- | --- | --- | --- |
| CC(C)(CCCCC(C)(C)C1NC(=O)N1)C1NC(=O)N1 | > 10 µM (inactive) | > 10 µM (inactive) | > 10 µM (inactive) | > 10 µM (inactive) | > 10 µM (inactive) | > 10 µM (inactive) | > 10 µM (inactive) | > 10 µM (inactive) | > 10 µM (inactive) | > 10 µM (inactive) | > 10 µM (inactive) | > 10 µM | > 10 µM (inactive) | > 10 µM (inactive) | > 10 µM (inactive) | > 10 µM (inactive) |  |  |  |  |
| CC(C)OP(=O)(OC(C)C)c1ncn(-c2ccc([N+](=O)[O-])cc2)n1 | > 100 µM (inactive) | > 100 µM (inactive) | > 100 µM (inactive) |  | > 100 µM (inactive) | > 100 µM (inactive) |  | > 100 µM (inactive) |  | > 100 µM (inactive) | > 100 µM (inactive) | > 100 µM |  |  | > 100 µM (inactive) | > 100 µM (inactive) | > 100 µM (inactive) | > 100 µM (inactive) | > 100 µM (inactive) |  |
| COc1ccc(/C=C2/C(=O)N(C(=O)c3ccccc3O)N=C2C)cc1 |  | 0.175 µM (active) | 0.356 µM (active) | 0.05 µM (active) | 9.4 µM (inactive) | 0.65 µM (active) | 0.617 µM (active) | 0.262 µM (active) | 0.984 µM (active) | 16.4 µM (inactive) | 18.2 µM (inactive) | 0.263 µM | 0.192 µM (active) | 0.126 µM (active) | 0.238 µM (active) | 0.091 µM (active) | 0.442 µM (active) | 0.117 µM (active) | 0.232 µM (active) | 0.033 µM (active) |
| CC(=O)Oc1ccc(C2COc3cc(OC(C)=O)c(OC(C)=O)cc3C2)cc1 (stereo not drawn) | 16.5 µM (inactive) | 22.3 µM (inactive) | 2.8 µM (inactive) |  | 16.3 µM (inactive) | 22.4 µM (inactive) | 19 µM (inactive) | 17.9 µM (inactive) | 20.8 µM (inactive) |  | 17.9 µM (inactive) | 18.5 µM |  |  | 18 µM (inactive) | 17.4 µM (inactive) | 17.7 µM (inactive) | 4.44 µM (inactive) |  | 24.3 µM (inactive) |
| COc1cc2c(cc1OC)C1Cc3cc(OC)c(OC)cc3C(C2)O1 |  | > 100 µM (inactive) |  | > 100 µM (inactive) | > 100 µM (inactive) | > 100 µM (inactive) | > 100 µM (inactive) | > 100 µM (inactive) | > 100 µM (inactive) | > 100 µM (inactive) | > 100 µM (inactive) |  | > 100 µM (inactive) | 29.1 µM (inactive) | > 100 µM (inactive) | > 100 µM (inactive) | > 100 µM (inactive) |  |  |  |
| CCCCn1cc[n+](-c2nc3ccccc3n2C)c1 | > 100 µM (inactive) | > 100 µM (inactive) | > 100 µM (inactive) |  |  | > 100 µM (inactive) |  | > 100 µM (inactive) |  | > 100 µM (inactive) |  | > 100 µM |  |  | > 100 µM (inactive) | > 100 µM (inactive) | > 100 µM (inactive) | > 100 µM (inactive) | > 100 µM (inactive) | > 100 µM (inactive) |
| N#CCCN(c1ccc(/C=N/c2cccc([N+](=O)[O-])c2)cc1)S(=O)(=O)c1ccccc1 | > 100 µM (inactive) | > 100 µM (inactive) | > 100 µM (inactive) |  | > 100 µM (inactive) | > 100 µM (inactive) |  |  |  | > 100 µM (inactive) | > 100 µM (inactive) |  |  |  | > 100 µM (inactive) | > 100 µM (inactive) | > 100 µM (inactive) | > 100 µM (inactive) | > 100 µM (inactive) | > 100 µM (inactive) |
| CSCSCC(CO)NC(=O)/C(C)=C\c1c(C)[nH]c(=O)[nH]c1=O (stereo not drawn) | > 250 µM (inactive) | > 250 µM (inactive) | > 250 µM (inactive) |  | > 250 µM (inactive) | > 250 µM (inactive) | > 250 µM (inactive) | > 250 µM (inactive) | > 250 µM (inactive) |  | > 250 µM (inactive) | 225 µM |  |  | > 250 µM (inactive) | > 250 µM (inactive) | 170 µM (inactive) | > 250 µM (inactive) |  | > 250 µM (inactive) |
| CCCc1c(-c2ccccc2)[nH]c2ccccc2c1=O | 33 µM (inactive) |  |  | 37.3 µM (inactive) | 33.7 µM (inactive) | 89.1 µM (inactive) | 36.7 µM (inactive) | 29.9 µM (inactive) |  | 36.2 µM (inactive) | > 100 µM (inactive) | 27.4 µM | > 100 µM (inactive) | 32.2 µM (inactive) |  | 24.3 µM (inactive) | > 100 µM (inactive) |  | > 100 µM (inactive) |  |
| CNCCC=C1c2ccccc2CCc2ccccc21 [NORTRIPTYLINE HYDROCHLORIDE] | 15.8 µM (inactive) | 16.6 µM (inactive) | 14.6 µM (inactive) | 13.5 µM (inactive) | 13.5 µM (inactive) | 15.4 µM (inactive) | 15.7 µM (inactive) | 14.8 µM (inactive) | 15.7 µM (inactive) | 4.25 µM (inactive) | 7.62 µM (inactive) | 17.1 µM | 14.5 µM (inactive) | > 37 µM (inactive) | 17 µM (inactive) | 14.6 µM (inactive) | 7.67 µM (inactive) |  | 12.1 µM (inactive) |  |
| CN1CCc2[nH]c3ccccc3c2C1 | > 100 µM (inactive) | > 100 µM (inactive) | > 100 µM (inactive) |  | > 100 µM (inactive) | > 100 µM (inactive) | > 100 µM (inactive) | > 100 µM (inactive) | > 100 µM (inactive) |  | > 100 µM (inactive) | > 100 µM |  |  | > 100 µM (inactive) | > 100 µM (inactive) | > 100 µM (inactive) | > 100 µM (inactive) |  | > 100 µM (inactive) |
| Cc1cc(C)c(NC(=O)/C=C/c2ccccc2)c(C)c1 |  | > 100 µM (inactive) | 6 µM (inactive) | > 100 µM (inactive) | > 100 µM (inactive) |  | > 100 µM (inactive) | > 100 µM (inactive) | 29.3 µM (inactive) | > 100 µM (inactive) |  | 78 µM |  |  | > 100 µM (inactive) |  | > 100 µM (inactive) |  | 7.28 µM (inactive) |  |
